From PubChem BioAssay AID463102 (The Scripps Research Institute Molecular Screening Center, 2010) come the findings set out here.

Assay [1] can be described thus: GSTO1 inhibition and proteome off-target reactivity, late-stage follow-up, selectivity assay for GSTO1 inhibitor project, cell lysate, MDA-MB-435 proteome, gel ABPP, endogenous enzyme (AID 463102). The following applies: competitive gel ABPP, SE-Rh probe, measured here: total off-target bands hit, stronger effect = lower value.
Assay [2] deals with Glutathione S-transferase omega-1 (Homo sapiens) (UniProt P78417). Described as above. The following applies: competitive gel ABPP, SE-Rh probe, stronger effect = higher value.

Activity calls are given as the source filed them.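 Rule for the calls: active = target enzyme band signal cut by at least 80% with no off-target protein band also blocked; inactive = weaker inhibition or any off-target band blocked.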

Sequence of Glutathione S-transferase omega-1 (Homo sapiens) (P78417 whole entry, looked up): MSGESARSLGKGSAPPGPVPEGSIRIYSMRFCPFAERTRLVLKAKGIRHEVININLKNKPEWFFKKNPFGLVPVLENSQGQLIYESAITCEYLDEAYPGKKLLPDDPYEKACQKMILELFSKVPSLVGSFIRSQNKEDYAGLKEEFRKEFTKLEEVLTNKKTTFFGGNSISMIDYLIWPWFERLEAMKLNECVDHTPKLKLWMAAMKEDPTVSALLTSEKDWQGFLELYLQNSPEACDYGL

Take `O=C(CCl)N(CCCCNC(=O)C(F)(F)F)c1ccc([N+](=O)[O-])cc1`: the anti-target hits in assay [1] is 0. Further, the inhibition (as a rule, how much of the control response was suppressed) in assay [2] (GSTO1 inhibition, at 1 µM) was 100%; in assay [2] (at 0.1 µM), 99%.

As for `Cc1ccc2c(c1)c1c3n2CCN(C(=O)CCl)C3CCC1` (stereo not drawn), the anti-target hits in assay [1] was 6. Also, the inhibition was 93% in assay [2] (GSTO1 inhibition, at 1 µM) and 38% (inactive) in assay [2] (at 0.1 µM).

For the molecule `COc1ccc(C(C(=O)NC2CCCCC2)N(C(=O)CCl)c2ccc(Cl)cc2)cc1` (stereo not drawn), the anti-target hits in assay [1] was determined as 0. Moreover, the inhibition is 100% in assay [2] (GSTO1 inhibition, at 1 µM) and 87% in assay [2] (at 0.1 µM).

In turn, `COc1ccc(N(CCCNC(=O)C(F)(F)F)C(=O)CCl)cc1` had an anti-target hits in assay [1] of 0. Moreover, the inhibition in assay [2] (GSTO1 inhibition, at 1 µM) is 90%; in assay [2] (at 0.1 µM) it was 27% (inactive).

`Cc1nn(-c2ccccc2)c(Cl)c1CN(C(=O)CCl)c1ccc(Cl)cc1`: in assay [1], the anti-target hits was determined as 3. Besides, the inhibition in assay [2] (GSTO1 inhibition, at 1 µM) was 93%; in assay [2] (at 0.1 µM), 28% (inactive).

`Cc1ccc(N(CCCNC(=O)C(F)(F)F)C(=O)CCl)cc1` had an anti-target hits in assay [1] of 0. Moreover, the inhibition in assay [2] (GSTO1 inhibition, at 1 µM) was 55%; in assay [2] (at 0.1 µM), 10% (inactive).

In turn, `COc1ccc(C(CCN(Cc2ccc(OC)c(OC)c2)C(=O)CCl)c2ccccc2)cc1` (stereo not drawn) gave an anti-target hits in assay [1] of 9. In addition, the inhibition is 100% in assay [2] (GSTO1 inhibition, at 1 µM) and 81% (inactive) in assay [2] (at 0.1 µM).

Take `O=C(CCl)N(CCCNC(=O)C(F)(F)F)c1ccc(F)cc1`: the anti-target hits in assay [1] turned out to be 0. For the same molecule, the inhibition is 94% in assay [2] (GSTO1 inhibition, at 1 µM) and 25% (inactive) in assay [2] (at 0.1 µM).

On to `O=C(NC1CCCCC1)C(c1cccnc1)N(C(=O)CCl)c1ccc(Cl)cc1` (stereo not drawn), for which the anti-target hits in assay [1] worked out at 2. The inhibition in assay [2] (GSTO1 inhibition, at 1 µM) was 100%; in assay [2] (at 0.1 µM) it was 79% (inactive).

As to `O=C(NCCCN(C(=O)CCl)c1ccc([N+](=O)[O-])cc1)c1ccccc1`, in assay [1], the anti-target hits stood at 2. For the same molecule, the inhibition in assay [2] (GSTO1 inhibition, at 1 µM) was 93%; in assay [2] (at 0.1 µM), 34% (inactive).

In assay [1], `O=C(NC1CCCCC1)C(c1cccnc1)N(C(=O)CCl)c1cccc(Cl)c1` (stereo not drawn) yielded an anti-target hits of 2. For the same molecule, the inhibition in assay [2] (GSTO1 inhibition, at 1 µM) is 100%; in assay [2] (at 0.1 µM), 100% (inactive).

In turn, `O=C(CCl)N(CCCCCNC(=O)C(F)(F)F)c1ccc([N+](=O)[O-])cc1` returned an anti-target hits in assay [1] of 1. The inhibition in assay [2] (GSTO1 inhibition, at 1 µM) was 100%; in assay [2] (at 0.1 µM), 90% (inactive).

The molecule `C#CCCC(=O)NCCCN(C(=O)CCl)c1ccc([N+](=O)[O-])cc1` came in with an anti-target hits in assay [1] of 0. Moreover, the inhibition was 100% in assay [2] (GSTO1 inhibition, at 1 µM) and 59% (inactive) in assay [2] (at 0.1 µM).

`CCCCCCCCCCN(C(=O)CCl)c1ccc([N+](=O)[O-])cc1` gave an anti-target hits in assay [1] of 6. Also, the inhibition is 100% in assay [2] (GSTO1 inhibition, at 1 µM) and 67% (inactive) in assay [2] (at 0.1 µM).

In assay [1], `O=C(CCl)N(CCCNC(=O)C(F)(F)F)c1ccc(Cl)cc1` showed an anti-target hits of 0. In addition, the inhibition was 100% in assay [2] (GSTO1 inhibition, at 1 µM) and 85% in assay [2] (at 0.1 µM).

In assay [1], `O=C(CCl)N1CCN(S(=O)(=O)c2ccc3ccccc3c2)CC1` displayed an anti-target hits of 5. In addition, the inhibition in assay [2] (GSTO1 inhibition, at 1 µM) is 100%; in assay [2] (at 0.1 µM), 57% (inactive).

Consider `O=C(NC1CCCCC1)C(c1cccnc1)N(C(=O)CCl)c1cccc(C(F)(F)F)c1` (stereo not drawn), for which the anti-target hits in assay [1] was determined as 2. In addition, the inhibition in assay [2] (GSTO1 inhibition, at 1 µM) was 92%; in assay [2] (at 0.1 µM), 28% (inactive).

In assay [1], `C#CCCCCN(C(=O)CCl)c1ccc([N+](=O)[O-])cc1` registered an anti-target hits of 0. Also, the inhibition in assay [2] (GSTO1 inhibition, at 1 µM) was 100%; in assay [2] (at 0.1 µM), 51% (inactive).

For `O=C(NC1CCCCC1)C(c1cccnc1)N(C(=O)CCl)c1ccc(C(F)(F)F)cc1` (stereo not drawn), the anti-target hits in assay [1] came to 1. Also, the inhibition in assay [2] (GSTO1 inhibition, at 1 µM) was 55%; in assay [2] (at 0.1 µM), 0% (inactive).

For the molecule `O=C(NC1CCCCC1)C(c1cccnc1)N(C(=O)CCl)c1ccc(Cl)c(Cl)c1` (stereo not drawn), the anti-target hits in assay [1] worked out at 2. In addition, the inhibition in assay [2] (GSTO1 inhibition, at 1 µM) is 100%; in assay [2] (at 0.1 µM) it was 93% (inactive).

In turn, `O=C(CCl)N(CCCNC(=O)C(F)(F)F)c1cccc(C(F)(F)F)c1` registered an anti-target hits in assay [1] of 0. In addition, the inhibition was 100% in assay [2] (GSTO1 inhibition, at 1 µM) and 62% (inactive) in assay [2] (at 0.1 µM).

In assay [1], `COc1ccc(N(C(=O)CCl)C(C(=O)NCCc2ccccc2)c2cccs2)cc1Cl` (stereo not drawn) had an anti-target hits of 4. For the same molecule, the inhibition in assay [2] (GSTO1 inhibition, at 1 µM) is 100%; in assay [2] (at 0.1 µM), 85% (inactive).

For the molecule `CC(=O)NCCCN(C(=O)CCl)c1ccc([N+](=O)[O-])cc1`, the anti-target hits in assay [1] came out at 0. Also, the inhibition is 62% in assay [2] (GSTO1 inhibition, at 1 µM) and 16% (inactive) in assay [2] (at 0.1 µM).

The molecule `O=C(CCl)N(CCCNC(=O)C(F)(F)F)c1ccccc1` had an anti-target hits in assay [1] of 0. Also, the inhibition was 73% in assay [2] (GSTO1 inhibition, at 1 µM) and 16% (inactive) in assay [2] (at 0.1 µM).

Turning to `O=c1[nH]c(CCl)nc2cc(-c3ccc(F)cc3)sc12`, the anti-target hits in assay [1] worked out at 4. The inhibition in assay [2] (GSTO1 inhibition, at 1 µM) was 100%; in assay [2] (at 0.1 µM), 77% (inactive).

Consider `O=C(NC1CCCCC1)C(c1cccnc1)N(C(=O)CCl)c1ccc(F)cc1` (stereo not drawn), for which the anti-target hits in assay [1] was 2. Also, the inhibition in assay [2] (GSTO1 inhibition, at 1 µM) is 100%; in assay [2] (at 0.1 µM) it was 71% (inactive).

In the case of `Cc1cccc(CN2CCN(C(=O)CCl)CC2)c1`, the anti-target hits in assay [1] was 2. Moreover, the inhibition was 89% in assay [2] (GSTO1 inhibition, at 1 µM) and 26% (inactive) in assay [2] (at 0.1 µM).

In the case of `C#CCNC(=O)C(c1ccc(OC)cc1)N(C(=O)CCl)c1ccc(Cl)cc1` (stereo not drawn), in assay [1], the anti-target hits came to 0. Besides, the inhibition in assay [2] (GSTO1 inhibition, at 1 µM) was 100%; in assay [2] (at 0.1 µM), 64% (inactive).

In assay [1], `C#CCCCCNC(=O)C(c1cccnc1)N(C(=O)CCl)c1ccc(F)cc1` (stereo not drawn) displayed an anti-target hits of 2. Besides, the inhibition in assay [2] (GSTO1 inhibition, at 1 µM) is 100%; in assay [2] (at 0.1 µM), 48% (inactive).

Molecule `C#CCN(CCCN(C(=O)CCl)c1ccc([N+](=O)[O-])cc1)C(=O)C(F)(F)F` returned an anti-target hits in assay [1] of 0. Besides, the inhibition in assay [2] (GSTO1 inhibition, at 1 µM) is 100%; in assay [2] (at 0.1 µM), 100%.

Take `C#CCCCCNC(=O)C(c1ccc(OC)cc1)N(C(=O)CCl)c1cccc(Cl)c1` (stereo not drawn): the anti-target hits in assay [1] is 1. In addition, the inhibition in assay [2] (GSTO1 inhibition, at 1 µM) was 100%; in assay [2] (at 0.1 µM), 83% (inactive).

Take `C#CCNC(=O)C(c1ccc(OC)cc1)N(C(=O)CCl)c1cccc(Cl)c1` (stereo not drawn): the anti-target hits in assay [1] was 1. The inhibition in assay [2] (GSTO1 inhibition, at 1 µM) is 100%; in assay [2] (at 0.1 µM), 69% (inactive).

As to `O=S(=O)(c1ccc(Cl)cc1)N1CCC2(CC1)CO2`, the anti-target hits in assay [1] came to 0. The inhibition in assay [2] (GSTO1 inhibition, at 1 µM) is 88%; in assay [2] (at 0.1 µM), 19% (inactive).

For `O=C(NCCCN(C(=O)CCl)c1ccc([N+](=O)[O-])cc1)c1ccc(F)cc1`, the anti-target hits in assay [1] is 2. Besides, the inhibition in assay [2] (GSTO1 inhibition, at 1 µM) was 90%; in assay [2] (at 0.1 µM), 29% (inactive).

Take `COc1ccc(C(C(=O)NC2CCCCC2)N(C(=O)CCl)c2cccc(Cl)c2)cc1` (stereo not drawn): the anti-target hits in assay [1] came to 1. For the same molecule, the inhibition in assay [2] (GSTO1 inhibition, at 1 µM) is 100%; in assay [2] (at 0.1 µM) it was 98% (inactive).

As to `COc1ccc(N(C(=O)CCl)C(C(=O)NC2CCCCC2)c2cccnc2)cc1` (stereo not drawn), the anti-target hits in assay [1] amounted to 1. For the same molecule, the inhibition in assay [2] (GSTO1 inhibition, at 1 µM) is 100%; in assay [2] (at 0.1 µM) it was 45% (inactive).
